Test results reported in the NIST ThermoML archive (doi:10.1016/j.jct.2008.02.019).

How the values were obtained:
[1] = xn = mol fraction of the nth substance listed; conditions: 101 kPa, Liquid
[2] = excess molar enthalpy (molar enthalpy of mixing); xn = mol fraction of the nth substance listed; conditions: 101 kPa, Liquid, Flow calorimetry
[3] = refractive index (Na D-line) (dimensionless); conditions: 101.33 kPa, Liquid, Standard Abbe refractometry
[4] = 318.15 K; 101.33 kPa; Liquid; Vibrating tube method

CCCC[n+]1ccc(C)cc1.F[B-](F)(F)F [1-butyl-4-methylpyridinium tetrafluoroborate] + CO
Conditions | excess molar enthalpy [kcal/mol] | mass density [kg/m3]
[1], 298.15 K, x1 = 0.0539 | – | 880.6
[1], 298.15 K, x1 = 0.0819 | – | 916.2
[1], 298.15 K, x1 = 0.095 | – | 931.5
[1], 298.15 K, x1 = 0.1078 | – | 944.4
[1], 298.15 K, x1 = 0.1549 | – | 984.7
[1], 298.15 K, x1 = 0.2038 | – | 1017.3
[1], 298.15 K, x1 = 0.3016 | – | 1064.3
[1], 298.15 K, x1 = 0.3729 | – | 1088.5
[1], 298.15 K, x1 = 0.4548 | – | 1110.8
[1], 298.15 K, x1 = 0.5027 | – | 1120.9
[1], 298.15 K, x1 = 0.5533 | – | 1131.2
[1], 298.15 K, x1 = 0.6076 | – | 1140.4
[1], 298.15 K, x1 = 0.7174 | – | 1155.8
[1], 298.15 K, x1 = 0.8053 | – | 1165.6
[1], 298.15 K, x1 = 0.9129 | – | 1176
[1], 318.15 K, x1 = 0.0489 | – | 855.9
[1], 318.15 K, x1 = 0.096 | – | 915.9
[1], 318.15 K, x1 = 0.1439 | – | 961.3
[1], 318.15 K, x1 = 0.1894 | – | 994.2
[1], 318.15 K, x1 = 0.3003 | – | 1049.4
[1], 318.15 K, x1 = 0.3551 | – | 1068.5
[1], 318.15 K, x1 = 0.4349 | – | 1091.7
[1], 318.15 K, x1 = 0.4888 | – | 1103.9
[1], 318.15 K, x1 = 0.5342 | – | 1112.7
[1], 318.15 K, x1 = 0.5959 | – | 1123.9
[1], 318.15 K, x1 = 0.6592 | – | 1133.5
[1], 318.15 K, x1 = 0.7266 | – | 1142.3
[1], 318.15 K, x1 = 0.8378 | – | 1154.8
[1], 318.15 K, x1 = 0.9046 | – | 1161.4
[2], 298.15 K, x1 = 0.0155 | 0.0607 | –
[2], 298.15 K, x1 = 0.0359 | 0.116 | –
[2], 298.15 K, x1 = 0.0582 | 0.159 | –
[2], 298.15 K, x1 = 0.0832 | 0.217 | –
[2], 298.15 K, x1 = 0.1111 | 0.27 | –
[2], 298.15 K, x1 = 0.1397 | 0.329 | –
[2], 298.15 K, x1 = 0.1698 | 0.377 | –
[2], 298.15 K, x1 = 0.1711 | 0.392 | –
[2], 298.15 K, x1 = 0.1953 | 0.415 | –
[2], 298.15 K, x1 = 0.2214 | 0.435 | –
[2], 298.15 K, x1 = 0.2412 | 0.453 | –
[2], 298.15 K, x1 = 0.2755 | 0.469 | –
[2], 298.15 K, x1 = 0.3109 | 0.48 | –
[2], 298.15 K, x1 = 0.3617 | 0.475 | –
[2], 298.15 K, x1 = 0.427 | 0.453 | –
[2], 298.15 K, x1 = 0.507 | 0.411 | –
[2], 298.15 K, x1 = 0.6029 | 0.35 | –
[2], 298.15 K, x1 = 0.7161 | 0.272 | –
[2], 298.15 K, x1 = 0.8469 | 0.154 | –
[2], 318.2 K, x1 = 0.0102 | 0.0337 | –
[2], 318.21 K, x1 = 0.0238 | 0.0662 | –
[2], 318.22 K, x1 = 0.0405 | 0.098 | –
[2], 318.23 K, x1 = 0.0635 | 0.178 | –
[2], 318.24 K, x1 = 0.0898 | 0.261 | –
[2], 318.25 K, x1 = 0.1174 | 0.336 | –
[2], 318.26 K, x1 = 0.1476 | 0.403 | –
[2], 318.27 K, x1 = 0.1778 | 0.457 | –
[2], 318.28 K, x1 = 0.1969 | 0.498 | –
[2], 318.29 K, x1 = 0.2103 | 0.529 | –
[2], 318.3 K, x1 = 0.2392 | 0.559 | –
[2], 318.31 K, x1 = 0.2699 | 0.579 | –
[2], 318.32 K, x1 = 0.3021 | 0.603 | –
[2], 318.33 K, x1 = 0.3442 | 0.61 | –
[2], 318.34 K, x1 = 0.3846 | 0.619 | –
[2], 318.35 K, x1 = 0.4397 | 0.614 | –
[2], 318.36 K, x1 = 0.4968 | 0.595 | –
[2], 318.37 K, x1 = 0.5563 | 0.57 | –
[2], 318.38 K, x1 = 0.6281 | 0.533 | –
[2], 318.39 K, x1 = 0.7109 | 0.466 | –
[2], 318.4 K, x1 = 0.8042 | 0.362 | –
[2], 318.41 K, x1 = 0.8793 | 0.239 | –
[2], 318.42 K, x1 = 0.9607 | 0.0937 | –

CCCC[n+]1ccc(C)cc1.F[B-](F)(F)F [1-butyl-4-methylpyridinium tetrafluoroborate] + O
Conditions | excess molar enthalpy [kcal/mol] | mass density [kg/m3]
[1], 298.15 K, x1 = 0.0502 | – | 1060.5
[1], 298.15 K, x1 = 0.1042 | – | 1094.8
[1], 298.15 K, x1 = 0.1512 | – | 1112.7
[1], 298.15 K, x1 = 0.2006 | – | 1126.1
[1], 298.15 K, x1 = 0.2543 | – | 1136.1
[1], 298.15 K, x1 = 0.2948 | – | 1142.4
[1], 298.15 K, x1 = 0.4 | – | 1154.1
[1], 298.15 K, x1 = 0.4913 | – | 1161.5
[1], 298.15 K, x1 = 0.6014 | – | 1168.3
[1], 298.15 K, x1 = 0.7228 | – | 1173.9
[1], 298.15 K, x1 = 0.7493 | – | 1175.1
[1], 298.15 K, x1 = 0.783 | – | 1176.4
[1], 298.15 K, x1 = 0.8449 | – | 1178.7
[1], 298.15 K, x1 = 0.8731 | – | 1179.8
[1], 298.15 K, x1 = 0.9504 | – | 1182.1
[1], 318.15 K, x1 = 0.0327 | – | 1033
[1], 318.15 K, x1 = 0.0994 | – | 1080
[1], 318.15 K, x1 = 0.1505 | – | 1098.7
[1], 318.15 K, x1 = 0.1989 | – | 1111.3
[1], 318.15 K, x1 = 0.236 | – | 1118.6
[1], 318.15 K, x1 = 0.2921 | – | 1127.6
[1], 318.15 K, x1 = 0.3237 | – | 1131.9
[1], 318.15 K, x1 = 0.4169 | – | 1141.3
[1], 318.15 K, x1 = 0.4841 | – | 1146.6
[1], 318.15 K, x1 = 0.6083 | – | 1154.2
[1], 318.15 K, x1 = 0.6715 | – | 1157.5
[1], 318.15 K, x1 = 0.7125 | – | 1159.2
[1], 318.15 K, x1 = 0.7299 | – | 1160
[1], 318.15 K, x1 = 0.8124 | – | 1163
[1], 318.15 K, x1 = 0.8565 | – | 1164.7
[1], 318.15 K, x1 = 0.8888 | – | 1165.8
[2], 298.15 K, x1 = 0.0072 | 0.0249 | –
[2], 298.15 K, x1 = 0.0145 | 0.0473 | –
[2], 298.15 K, x1 = 0.0215 | 0.0679 | –
[2], 298.15 K, x1 = 0.0303 | 0.0908 | –
[2], 298.15 K, x1 = 0.0406 | 0.117 | –
[2], 298.15 K, x1 = 0.0526 | 0.147 | –
[2], 298.15 K, x1 = 0.0659 | 0.177 | –
[2], 298.15 K, x1 = 0.0805 | 0.209 | –
[2], 298.15 K, x1 = 0.0963 | 0.243 | –
[2], 298.15 K, x1 = 0.1144 | 0.278 | –
[2], 298.15 K, x1 = 0.1563 | 0.349 | –
[2], 298.15 K, x1 = 0.1863 | 0.38 | –
[2], 298.15 K, x1 = 0.2196 | 0.407 | –
[2], 298.15 K, x1 = 0.2577 | 0.424 | –
[2], 298.15 K, x1 = 0.2972 | 0.433 | –
[2], 298.15 K, x1 = 0.3449 | 0.433 | –
[2], 298.15 K, x1 = 0.3974 | 0.42 | –
[2], 298.15 K, x1 = 0.4857 | 0.379 | –
[2], 298.15 K, x1 = 0.5954 | 0.32 | –
[2], 298.15 K, x1 = 0.7282 | 0.23 | –
[2], 298.15 K, x1 = 0.8706 | 0.116 | –
[2], 318.15 K, x1 = 0.0097 | 0.0449 | –
[2], 318.16 K, x1 = 0.0226 | 0.0937 | –
[2], 318.17 K, x1 = 0.0382 | 0.145 | –
[2], 318.18 K, x1 = 0.0565 | 0.197 | –
[2], 318.19 K, x1 = 0.0755 | 0.249 | –
[2], 318.2 K, x1 = 0.0949 | 0.293 | –
[2], 318.21 K, x1 = 0.1132 | 0.336 | –
[2], 318.22 K, x1 = 0.1187 | 0.36 | –
[2], 318.23 K, x1 = 0.1414 | 0.402 | –
[2], 318.24 K, x1 = 0.1695 | 0.44 | –
[2], 318.25 K, x1 = 0.2008 | 0.471 | –
[2], 318.26 K, x1 = 0.2346 | 0.499 | –
[2], 318.27 K, x1 = 0.2746 | 0.524 | –
[2], 318.28 K, x1 = 0.3253 | 0.537 | –
[2], 318.29 K, x1 = 0.383 | 0.533 | –
[2], 318.3 K, x1 = 0.441 | 0.517 | –
[2], 318.31 K, x1 = 0.5071 | 0.484 | –
[2], 318.32 K, x1 = 0.5961 | 0.42 | –
[2], 318.33 K, x1 = 0.6778 | 0.34 | –
[2], 318.34 K, x1 = 0.7866 | 0.236 | –
[2], 318.35 K, x1 = 0.9058 | 0.102 | –

CCCCCO [pentan-1-ol]
[3]
Conditions | refractive index
298.15 K | 1.4078
318.15 K | 1.4003

Conditions | mass density [kg/m3]
[4] | 796.1
